The results in this text go back to patent US9056874B2, “Complement pathway modulators and uses thereof” (NOVARTIS AG, priority 2012, dated 2015).

The target of this assay is factor B (Homo sapiens, UniProt P00751). In words: factor B inhibition assay of Biological Example 1. Format: biochemical. Also noted: CVF-Bb complex prepared from purified cobra venom factor (1 μM), recombinant human complement factor B; made in house; host or cells: drosophila cells (factor B); E. coli (factor D used to form the complex). The settings on record: IC50 (nM), assay of Biological Example 1 (Table 1).

Structures are written as SMILES.

Chain of factor B (P00751 260-764 limits assumed): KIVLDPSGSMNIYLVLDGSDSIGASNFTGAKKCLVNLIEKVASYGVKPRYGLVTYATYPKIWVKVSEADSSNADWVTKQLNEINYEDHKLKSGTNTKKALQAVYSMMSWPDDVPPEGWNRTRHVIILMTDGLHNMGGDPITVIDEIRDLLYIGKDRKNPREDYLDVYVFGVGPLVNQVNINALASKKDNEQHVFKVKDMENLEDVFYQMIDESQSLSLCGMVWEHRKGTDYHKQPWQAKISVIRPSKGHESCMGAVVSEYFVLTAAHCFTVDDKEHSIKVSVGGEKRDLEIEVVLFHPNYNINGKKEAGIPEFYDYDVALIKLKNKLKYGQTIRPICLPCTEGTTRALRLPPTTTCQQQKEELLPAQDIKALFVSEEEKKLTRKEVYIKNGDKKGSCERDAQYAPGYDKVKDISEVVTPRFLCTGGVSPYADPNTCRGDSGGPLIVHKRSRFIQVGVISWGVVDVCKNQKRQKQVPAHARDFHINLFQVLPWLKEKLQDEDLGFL
Chain of factor B (Q91132 23-649 partner limits assumed): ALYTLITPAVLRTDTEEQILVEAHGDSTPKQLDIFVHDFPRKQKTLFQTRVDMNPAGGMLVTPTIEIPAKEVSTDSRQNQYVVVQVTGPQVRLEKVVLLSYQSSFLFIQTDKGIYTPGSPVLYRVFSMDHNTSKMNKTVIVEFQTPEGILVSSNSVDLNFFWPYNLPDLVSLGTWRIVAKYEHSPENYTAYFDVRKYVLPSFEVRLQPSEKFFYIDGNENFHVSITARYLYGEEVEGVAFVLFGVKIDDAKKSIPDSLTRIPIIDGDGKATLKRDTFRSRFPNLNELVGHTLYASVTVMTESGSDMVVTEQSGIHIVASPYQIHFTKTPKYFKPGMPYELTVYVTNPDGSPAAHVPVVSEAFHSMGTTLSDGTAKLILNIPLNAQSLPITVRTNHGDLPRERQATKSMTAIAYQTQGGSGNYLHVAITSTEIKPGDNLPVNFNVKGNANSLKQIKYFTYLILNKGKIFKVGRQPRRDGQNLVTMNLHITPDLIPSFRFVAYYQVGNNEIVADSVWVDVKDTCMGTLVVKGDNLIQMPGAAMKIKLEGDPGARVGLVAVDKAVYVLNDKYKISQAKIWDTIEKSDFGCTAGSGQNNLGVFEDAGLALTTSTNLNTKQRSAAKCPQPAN
Chain of factor B (Q91132 733-984 partner limits assumed): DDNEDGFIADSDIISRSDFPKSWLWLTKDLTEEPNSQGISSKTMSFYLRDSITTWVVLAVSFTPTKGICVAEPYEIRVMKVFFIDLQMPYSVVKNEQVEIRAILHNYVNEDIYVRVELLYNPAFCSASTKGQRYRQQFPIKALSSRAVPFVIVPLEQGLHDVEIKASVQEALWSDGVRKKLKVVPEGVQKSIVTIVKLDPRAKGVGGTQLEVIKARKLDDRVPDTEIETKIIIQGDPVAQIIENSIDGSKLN
Chain of factor B (Q91132 1264-1642 partner limits assumed): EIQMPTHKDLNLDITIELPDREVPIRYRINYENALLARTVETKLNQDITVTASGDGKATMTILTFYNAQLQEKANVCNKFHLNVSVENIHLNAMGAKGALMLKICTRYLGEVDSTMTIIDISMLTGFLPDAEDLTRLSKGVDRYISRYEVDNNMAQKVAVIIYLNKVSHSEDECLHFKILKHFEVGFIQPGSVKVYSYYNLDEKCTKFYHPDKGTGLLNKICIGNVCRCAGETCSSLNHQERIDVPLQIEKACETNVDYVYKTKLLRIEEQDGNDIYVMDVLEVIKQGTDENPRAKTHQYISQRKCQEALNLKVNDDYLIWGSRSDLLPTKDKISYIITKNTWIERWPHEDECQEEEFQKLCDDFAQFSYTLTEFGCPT

For `COc1cc(C)c2[nH]ccc2c1C(O)(c1nc2cc(C#N)ccc2[nH]1)C(F)(F)F` (single isomer, unassigned; (-)) [33-B b) (−), (−)-2-(2,2,2-trifluoro-1-hydroxy-1-(5-methoxy-7-methyl-1H-indol-4-yl)ethyl)-1H-benzo[d]imidazole-5-carbonitrile], the IC50 is 50 nM.

For the compound `COc1cc(C)c2[nH]ccc2c1C(OC)(c1nc2cc(C#N)ccc2[nH]1)C(F)(F)F` (single isomer, unassigned; (-)) [34-B b) (−), (−)-2-(2,2,2-trifluoro-1-methoxy-1-(5-methoxy-7-methyl-1H-indol-4-yl)ethyl)-1H-benzo[d]imidazole-5-carbonitrile], the concentration for half-maximal inhibition (IC50) was found to be 10 nM.

For the compound `COc1cc(C)c2[nH]ccc2c1C(OCC(=O)O)(c1nc2cc(C#N)ccc2[nH]1)C(F)(F)F` (single isomer, unassigned; (-)) [35-C (−), (−)-2-(1-(5-cyano-1H-benzo[d]imidazol-2-yl)-2,2,2-trifluoro-1-(5-methoxy-7-methyl-1H-indol-4-yl)ethoxy)acetic acid], the IC50 was determined as 40 nM.

As for `CNC(c1nc2cc(C#N)ccc2[nH]1)(c1c(OC)cc(C)c2[nH]ccc12)C(F)(F)F` (single isomer, unassigned; (-)) [38-B b) (−), (−)-2-(2,2,2-trifluoro-1-(5-methoxy-7-methyl-1H-indol-4-yl)-1-(methylamino)ethyl)-1H-benzo[d]imidazole-5-carbonitrile], the IC50 came to 8 nM.

`CNC(C)(c1nc2cc(C#N)ccc2[nH]1)c1c(OC)cc(C)c2[nH]ccc12` (single isomer, unassigned; (-)) [42-D b) (−), (−)-2-(1-(5-methoxy-7-methyl-1H-indol-4-yl)-1-(methylamino)ethyl)-1H-benzo[d]imidazole-5-carbonitrile]: the IC50 worked out at 5 nM.

With `Cc1cc(C)c2[nH]ccc2c1C(O)c1nc2cc(C#N)ccc2[nH]1` (single isomer, unassigned; (-)) [64-C b) (−), (−)-2-((5,7-dimethyl-1H-indol-4-yl)(hydroxy)methyl)benzo[d]imidazole-5-carbonitrile], the IC50 turned out to be 60 nM.

Take `Cc1cc(CO)c(C(O)c2nc3cc(C#N)ccc3[nH]2)c2cc[nH]c12` (single isomer, unassigned; (-)) [65-D b) (−), (−)-2-(hydroxy(5-(hydroxymethyl)-7-methyl-1H-indol-4-yl)methyl)-1H-benzo[d]imidazole-5-carbonitrile]: the IC50 stood at 270 nM.

For the compound `CCOCc1cc(C)c2[nH]ccc2c1C(O)c1nc2cc(C#N)ccc2[nH]1` (single isomer, unassigned; (-)) [66-D b) (−), (−)-2-((5-(ethoxymethyl)-7-methyl-1H-indol-4-yl)(hydroxy)methyl)-1H-benzo[d]imidazole-5-carbonitrile], the IC50 amounted to 5110 nM.

Turning to `CCc1cc(C)c2[nH]ccc2c1C(O)c1nc2cc(C#N)ccc2[nH]1` (single isomer, unassigned; (-)) [67-A b) (−), (−)-2-((5-ethyl-7-methyl-1H-indol-4-yl)(hydroxy)methyl)-1H-benzo[d]imidazole-5-carbonitrile], the IC50 came to 160 nM.

On to `Cc1cc(CC(C)C)c(C(O)c2nc3cc(C#N)ccc3[nH]2)c2cc[nH]c12` (single isomer, unassigned; (-)) [67-C b) (−), (−)-2-(hydroxy(5-(isobutyl)-7-methyl-1H-indol-4-yl)methyl)-1H-benzo[d]imidazole-5-carbonitrile], for which the half-maximal inhibitory concentration (IC50) turned out to be 6750 nM.

As for `Cc1cc(C(C)C)c(C(O)c2nc3cc(C#N)ccc3[nH]2)c2cc[nH]c12` (single isomer, unassigned; (-)) [67-D b) (−), (−)-2-(hydroxy(5-isopropyl-7-methyl-1H-indol-4-yl)methyl)-1H-benzo[d]imidazole-5-carbonitrile], the IC50 was determined as 60 nM.

As for `Cc1cc(Cl)c(C(O)c2nc3cc(C#N)ccc3[nH]2)c2cc[nH]c12` (single isomer, unassigned; (-)) [67-E b) (−), (−)-2-((5-chloro-7-methyl-1H-indol-4-yl)(hydroxy)methyl)-1H-benzo[d]imidazole-5-carbonitrile], the IC50 was determined as 1180 nM.

In general, IC50 refers to the concentration that gives 50% inhibition.
